Laboratory results as given in US4001325A, “α-Chloroacetanilide selective herbicides” (Diamond Shamrock Corporation, priority 1973, dated 1977).

Tests used:
Soybeans = test: Field preemergence test, phytotoxic effects on crop; format: in vivo, var. Davis
Excerpt: (§1) Test plots of fertilized, light sandy soil containing 0.7% organic matter are sprayed uniformly with aqueous suspensions prepared from emulsifiable concentrates containing 12%, by weight, of the test chemicals diluted to provide dosage rates of the test compounds corresponding to 2.0, 1.0, 0.5, and 0.25 pound per acre (lb/A). The plots are then sown with seeds of the following crop plants: sweet corn, cotton (Coker 413) and soybeans, var. Davis. Seeds of the following weed plants are planted: redroot pigweed, prickly sida, common lambsquarter, goosegrass and giant foxtail.
(§2) Three to four weeks after planting, percent control (plant kill) of the test plants is estimated, from a rating of 0 which denotes no injury to the plant up to 100 which denotes complete destruction. The herbicidal action of the test compounds obtained on the weed species is as follows:
(§3) Phytotoxic effects observed on the crop species is estimated with results as follows: […]

[1] = tested on: broadleaf species: pigweed, velvetleaf, morningglory; test: Greenhouse preemergence herbicide test, broadleaves; format: in vivo; settings: two weeks after treatment, 20160 min
Protocol: (§4) To illustrate the preemergence herbicidal efficiency of the alkyl-substituted 2-chloro-N-propargylacetanilides of this invention, test formulations are prepared of each compound by mixing 20 ml of an acetone solution containing 0.125 g of chemical with 20 ml of water containing 0.01 g of Triton X-155 surfactant. The resultant formulations contain 3125 ppm of test compound, 50% by volume of acetone and 0.025% by weight of surfactant. Appropriate lower concentrations are obtained by diluting this formulation with surfactant-acetone solution so that the concentration of adjuvants is maintained at the original levels.
(§5) Seeds of three broadleaf and three grass species are planted in soil contained in 10 inch × 8 inch × 3 inch aluminum pans filled with 1.5 inches of composted soil. The broadleaf species are pigweed (Amaranthus retroflexus), velvetleaf (Abutilon theophrasti), and morningglory (Ipomea coccinea); the grasses are red millet (Panicum milliacem), green foxtail (Setaria viridis) and Japanese millet (Echinochloa frumentacea).
(§6) The seeded pans are sprayed so that the soil surface is uniformly covered with dilutions of the stock formulation providing dosage rates of the test compounds as shown in the following table.
(§7) Two weeks after treatment, percent control (plant kill) at each dosage rate is estimated with results as follows: […]

Giant Foxtail = test: Field preemergence test, weed control; format: in vivo; settings: 3-4 weeks after planting
Excerpt: as §1
(§8) Three to four weeks after planting, percent control (plant kill) of the test plants is estimated, from a rating of 0 which denotes no injury to the plant up to 100 which denotes complete destruction. The herbicidal action of the test compounds obtained on the weed species is as follows: […]

Redroot Pigweed = test: Field preemergence test, weed control; format: in vivo; settings: 3-4 weeks after planting
Excerpt: as §1, §8

Goosegrass = test: Field preemergence test, weed control; format: in vivo; settings: 3-4 weeks after planting
Excerpt: as §1, §8

Prickly Sida = test: Field preemergence test, weed control; format: in vivo; settings: 3-4 weeks after planting
Excerpt: as §1, §8

Common Lambsquarter = test: Field preemergence test, weed control; format: in vivo; settings: 3-4 weeks after planting
Excerpt: as §1, §8

Cotton = test: Field preemergence test, phytotoxic effects on crop; format: in vivo, cotton (Coker 413)
Excerpt: as §1, §2, §3

Corn = test: as above; format: in vivo, sweet corn
Excerpt: as §1, §2, §3

[2] = tested on: grass species: red millet, green foxtail, Japanese millet; test: Greenhouse preemergence herbicide test, grasses; format: in vivo, Panicum milliacem, Setaria viridis, Echinochloa frumentacea; settings: pre-emergence, 336 h, two weeks after treatment; for pest or weed control at 69.4927 g/ha: 0.062 lb/A; for pest or weed control at 140.106 g/ha: 0.125 lb/A; for pest or weed control at 280.212 g/ha: 0.25 lb/A; for pest or weed control at 560.425 g/ha: 0.5 lb/A; for pest or weed control at 1120.85 g/ha: 1.0 lb/A
Protocol: as §4, §5, §6, §7

C#CCN(C(=O)CCl)c1ccccc1C [Example 10, 2-Chloro-2'-methyl-N-propargylacetanilide] was tested, and the “% Crop Kill, Soybeans” value (Soybeans; 0.5 lb/A) was 0%, the “% Crop Kill, Soybeans” value (Soybeans; 1.0 lb/A) was 0% and the “% Crop Kill, Soybeans” value (Soybeans; 2.0 lb/A) was 0%. The “% Control, Broadleaves” value ([1]; 0.062 lb/A) was 0%, the “% Control, Broadleaves” value ([1]; 0.125 lb/A) was 0% and the “% Control, Broadleaves” value ([1]; 0.25 lb/A) was 0%. The “% Control, Broadleaves” value ([1]; 0.5 lb/A) was 0%, the “% Control, Broadleaves” value ([1]; 1.0 lb/A) was 35% and the “% Weed Control, Giant Foxtail” value (Giant Foxtail; 0.25 lb/A) was 0%. For the same molecule, the “% Weed Control, Giant Foxtail” value (Giant Foxtail; 0.5 lb/A) was 20%, the “% Weed Control, Giant Foxtail” value (Giant Foxtail; 1.0 lb/A) was 70% and the “% Weed Control, Giant Foxtail” value (Giant Foxtail; 2.0 lb/A) was 80%. The “% Weed Control, Redroot Pigweed” value (Redroot Pigweed; 0.25 lb/A) was 0%, the “% Weed Control, Redroot Pigweed” value (Redroot Pigweed; 0.5 lb/A) was 27% and the “% Weed Control, Redroot Pigweed” value (Redroot Pigweed; 1.0 lb/A) was 45%. The “% Weed Control, Redroot Pigweed” value (Redroot Pigweed; 2.0 lb/A) was 67%, the “% Weed Control, Goosegrass” value (Goosegrass; 0.25 lb/A) was 53% and the “% Weed Control, Goosegrass” value (Goosegrass; 0.5 lb/A) was 78%. For the same molecule, the “% Weed Control, Goosegrass” value (Goosegrass; 1.0 lb/A) was 92%, the “% Weed Control, Goosegrass” value (Goosegrass; 2.0 lb/A) was 97% and the “% Weed Control, Prickly Sida” value (Prickly Sida; 0.25 lb/A) was 0%. The “% Weed Control, Prickly Sida” value (Prickly Sida; 0.5 lb/A) was 0%, the “% Weed Control, Prickly Sida” value (Prickly Sida; 1.0 lb/A) was 0% and the “% Weed Control, Prickly Sida” value (Prickly Sida; 2.0 lb/A) was 25%. The “% Weed Control, Common Lambsquarter” value (Common Lambsquarter; 0.25 lb/A) was 40%, the “% Weed Control, Common Lambsquarter” value (Common Lambsquarter; 0.5 lb/A) was 60% and the “% Weed Control, Common Lambsquarter” value (Common Lambsquarter; 1.0 lb/A) was 95%. The “% Weed Control, Common Lambsquarter” value (Common Lambsquarter; 2.0 lb/A) was 95%, the “% Crop Kill, Cotton” value (Cotton; 0.5 lb/A) was 0% and the “% Crop Kill, Cotton” value (Cotton; 1.0 lb/A) was 3%. The “% Crop Kill, Cotton” value (Cotton; 2.0 lb/A) was 3%, the “% Crop Kill, Corn” value (Corn; 0.5 lb/A) was 0% and the “% Crop Kill, Corn” value (Corn; 1.0 lb/A) was 0%. For the same molecule, the “% Crop Kill, Corn” value (Corn; 2.0 lb/A) was 0%, the pest or weed control at 69.4927 g/ha [2] was 0% and the pest or weed control at 140.106 g/ha [2] was 55%. For the same molecule, the pest or weed control at 280.212 g/ha [2] was 85%, the pest or weed control at 560.425 g/ha [2] was 80% and the pest or weed control at 1120.85 g/ha [2] was 90%.
With C#CCN(C(=O)CCl)c1ccccc1CC [Example 11, 2-Chloro-2'-ethyl-N-propargylacetanilide] the “% Crop Kill, Soybeans” value (Soybeans; 0.5 lb/A) was 0%, the “% Crop Kill, Soybeans” value (Soybeans; 1.0 lb/A) was 0% and the “% Crop Kill, Soybeans” value (Soybeans; 2.0 lb/A) was 3%. For the same molecule, the “% Control, Broadleaves” value ([1]; 0.5 lb/A) was 0%, the “% Control, Broadleaves” value ([1]; 1.0 lb/A) was 35% and the “% Weed Control, Giant Foxtail” value (Giant Foxtail; 0.25 lb/A) was 0%. The “% Weed Control, Giant Foxtail” value (Giant Foxtail; 0.5 lb/A) was 23%, the “% Weed Control, Giant Foxtail” value (Giant Foxtail; 1.0 lb/A) was 45% and the “% Weed Control, Giant Foxtail” value (Giant Foxtail; 2.0 lb/A) was 90%. The “% Weed Control, Redroot Pigweed” value (Redroot Pigweed; 0.25 lb/A) was 33%, the “% Weed Control, Redroot Pigweed” value (Redroot Pigweed; 0.5 lb/A) was 75% and the “% Weed Control, Redroot Pigweed” value (Redroot Pigweed; 1.0 lb/A) was 80%. For the same molecule, the “% Weed Control, Redroot Pigweed” value (Redroot Pigweed; 2.0 lb/A) was 98%, the “% Weed Control, Goosegrass” value (Goosegrass; 0.25 lb/A) was 62% and the “% Weed Control, Goosegrass” value (Goosegrass; 0.5 lb/A) was 82%. The “% Weed Control, Goosegrass” value (Goosegrass; 1.0 lb/A) was 100%, the “% Weed Control, Goosegrass” value (Goosegrass; 2.0 lb/A) was 100% and the “% Weed Control, Prickly Sida” value (Prickly Sida; 0.25 lb/A) was 0%. The “% Weed Control, Prickly Sida” value (Prickly Sida; 0.5 lb/A) was 13%, the “% Weed Control, Prickly Sida” value (Prickly Sida; 1.0 lb/A) was 33% and the “% Weed Control, Prickly Sida” value (Prickly Sida; 2.0 lb/A) was 57%. The “% Weed Control, Common Lambsquarter” value (Common Lambsquarter; 0.25 lb/A) was 50%, the “% Weed Control, Common Lambsquarter” value (Common Lambsquarter; 0.5 lb/A) was 70% and the “% Weed Control, Common Lambsquarter” value (Common Lambsquarter; 1.0 lb/A) was 100%. The “% Weed Control, Common Lambsquarter” value (Common Lambsquarter; 2.0 lb/A) was 100%, the “% Crop Kill, Cotton” value (Cotton; 0.5 lb/A) was 0% and the “% Crop Kill, Cotton” value (Cotton; 1.0 lb/A) was 10%. The “% Crop Kill, Cotton” value (Cotton; 2.0 lb/A) was 18%, the “% Crop Kill, Corn” value (Corn; 0.5 lb/A) was 0% and the “% Crop Kill, Corn” value (Corn; 1.0 lb/A) was 0%. The “% Crop Kill, Corn” value (Corn; 2.0 lb/A) was 0%, the pest or weed control at 69.4927 g/ha [2] was 0% and the pest or weed control at 140.106 g/ha [2] was 55%. The pest or weed control at 280.212 g/ha [2] was 80%, the pest or weed control at 560.425 g/ha [2] was 90% and the pest or weed control at 1120.85 g/ha [2] was 95%.
For C#CCN(C(=O)CCl)c1c(C)cccc1C(C)C [Example 12, 2-Chloro-2'-methyl-6'-isopropyl-N-propargylacetanilide], the “% Control, Broadleaves” value ([1]; 1.0 lb/A) was 0%, the “% Control, Broadleaves” value ([1]; 2.0 lb/A) was 40% and the pest or weed control at 69.4927 g/ha [2] was 45%. For the same molecule, the pest or weed control at 140.106 g/ha [2] was 65%, the pest or weed control at 560.425 g/ha [2] was 70% and the pest or weed control at 1120.85 g/ha [2] was 90%. The pest or weed control at 2241.7 g/ha ([2]; 2.0 lb/A) was 90%.
With C#CCN(C(=O)CCl)c1c(C(C)C)cccc1C(C)C [Example 13, 2-Chloro-2',6'-diisopropyl-N-propargylacetanilide] the “% Control, Broadleaves” value ([1]; 1.0 lb/A) was 0%, the pest or weed control at 140.106 g/ha [2] was 20% and the pest or weed control at 280.212 g/ha [2] was 50%. The pest or weed control at 560.425 g/ha [2] was 90% and the pest or weed control at 1120.85 g/ha [2] was 90%.
In the case of C#CCN(C(=O)CCl)c1c(CC)cccc1C(C)C [Example 14, 2-Chloro-2'-ethyl-6'-isopropyl-N-propargylacetanilide], the “% Control, Broadleaves” value ([1]; 1.0 lb/A) is reported as 0%, the pest or weed control at 140.106 g/ha [2] is reported as 40% and the pest or weed control at 280.212 g/ha [2] is reported as 40%. The pest or weed control at 560.425 g/ha [2] was 80% and the pest or weed control at 1120.85 g/ha [2] was 100%.
In the case of C#CCN(C(=O)CCl)c1ccccc1C(C)C [Example 16, 2-Chloro-2'-isopropyl-N-propargylacetanilide], the “% Control, Broadleaves” value ([1]; 1.0 lb/A) is reported as 0%, the pest or weed control at 280.212 g/ha [2] is reported as 80% and the pest or weed control at 560.425 g/ha [2] is reported as 90%. For the same molecule, the pest or weed control at 1120.85 g/ha [2] was 100%.
